One compound from patent US11396522B2, “Bis-acetal-based substrates for imaging exo-glycosidase activity” (ALECTOS THERAPEUTICS INC., priority 2017, dated 2022) can be followed below.

A short description of data set [1]: pH stability of Glyco-BABS. The data set is classed as physicochemical. The note with it: 5 μM, up to 72 h, pH 2 to 10.
The next data set addresses T1, GBA2 (Homo sapiens, UniProt Q9HCG7).
T1 sequence (Q9HCG7 1-927): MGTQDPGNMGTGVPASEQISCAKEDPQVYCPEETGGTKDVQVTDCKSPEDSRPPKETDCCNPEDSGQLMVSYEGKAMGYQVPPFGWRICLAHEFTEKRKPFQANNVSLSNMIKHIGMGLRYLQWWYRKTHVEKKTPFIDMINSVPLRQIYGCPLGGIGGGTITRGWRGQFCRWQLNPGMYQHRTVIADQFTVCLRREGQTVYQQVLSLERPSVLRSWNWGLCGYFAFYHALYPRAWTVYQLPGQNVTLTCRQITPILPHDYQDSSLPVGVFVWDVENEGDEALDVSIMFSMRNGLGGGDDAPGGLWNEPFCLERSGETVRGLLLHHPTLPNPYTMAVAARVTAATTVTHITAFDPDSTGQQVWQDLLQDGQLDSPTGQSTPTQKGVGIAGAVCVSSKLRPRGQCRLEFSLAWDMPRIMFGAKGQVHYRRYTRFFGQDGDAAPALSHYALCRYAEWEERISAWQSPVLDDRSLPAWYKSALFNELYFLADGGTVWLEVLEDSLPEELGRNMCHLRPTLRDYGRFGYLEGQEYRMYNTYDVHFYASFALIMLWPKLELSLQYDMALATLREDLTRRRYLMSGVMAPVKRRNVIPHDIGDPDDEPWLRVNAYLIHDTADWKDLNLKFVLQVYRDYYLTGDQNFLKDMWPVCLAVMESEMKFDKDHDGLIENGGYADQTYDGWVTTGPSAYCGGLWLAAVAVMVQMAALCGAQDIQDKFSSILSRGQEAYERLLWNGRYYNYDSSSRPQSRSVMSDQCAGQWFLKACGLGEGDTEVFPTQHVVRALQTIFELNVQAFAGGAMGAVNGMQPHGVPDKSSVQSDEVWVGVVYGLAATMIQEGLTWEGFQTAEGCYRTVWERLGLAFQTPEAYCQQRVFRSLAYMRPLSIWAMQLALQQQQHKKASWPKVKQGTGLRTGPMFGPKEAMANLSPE
Kind of data set: In vitro kinetic assay with GBA2. The data set is classed as biochemical. The note with it: GBA enzymes at 50 nM.

A further data set concerns the target T2, GBA1 (Homo sapiens, UniProt P04062).
T2 sequence (P04062 40-536): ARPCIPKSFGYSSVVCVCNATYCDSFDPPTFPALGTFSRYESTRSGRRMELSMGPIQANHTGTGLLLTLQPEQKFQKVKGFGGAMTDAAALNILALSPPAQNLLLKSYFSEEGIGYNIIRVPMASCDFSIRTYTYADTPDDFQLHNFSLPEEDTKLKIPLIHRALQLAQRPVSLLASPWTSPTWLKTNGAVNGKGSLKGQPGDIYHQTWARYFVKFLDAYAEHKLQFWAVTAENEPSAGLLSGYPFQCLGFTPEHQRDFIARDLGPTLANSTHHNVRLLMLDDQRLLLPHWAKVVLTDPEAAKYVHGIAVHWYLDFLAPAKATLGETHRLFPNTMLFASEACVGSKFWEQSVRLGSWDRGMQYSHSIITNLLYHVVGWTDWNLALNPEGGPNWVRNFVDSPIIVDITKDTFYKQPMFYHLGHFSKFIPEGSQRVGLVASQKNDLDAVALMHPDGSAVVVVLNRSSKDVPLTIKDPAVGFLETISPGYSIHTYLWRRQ
Kind of data set: In vitro kinetic assay with GBA1. The data set is classed as biochemical. Set-up: purchased R&D Systems. The note with it: GBA enzymes at 50 nM. Here is the method: (§1) For some experiments, fluorescence kinetic assays were performed using a Varian Cary Eclipse Spectrophotometer set for 335/493 nm excitation/emission wavelengths. Slits were set at 10 nm and the detector was set on Medium voltage. Enzymatic reactions with human OGA were carried out in PBS at 37° C. and were started by addition of hOGA (WT, Full-length, expressed in E. coli. as previously described) in a total volume of 160 μL (Starna sub-micro Fluorometer cuvette). For measurements of rates using different concentrations of substrates, a hOGA concentration of 100 nM was used. For hOGA titration, 25 μM of Glyco-BABS were added to various concentration of hOGA. […] EDANS standard curve was established using endpoint fluorescence measurements of serial dilutions of EDANS in the relevant buffer using the same instrument parameters. Inner-Filter effect measurements were carried out in cuvette by measuring fluorescence of several concentrations of EDANS in presence of various concentrations of GlcNAc-BABS. Kinetics with Glc-BABS and GBA enzymes (GBA1 and GBA3 purchased from R&D Systems), kinetics with GALC (R&D systems) and Gal-BABS, pH stability, quenching efficiency, some inner-filter effect experiments and lysates experiments were carried out using a Molecular Devices SpectraMax i3× plate reader. […]

The next data set deals with T3, GBA3 (Homo sapiens, UniProt Q9H227).
T3 construct: purchased R&D Systems
T3 sequence (Q9H227 1-469): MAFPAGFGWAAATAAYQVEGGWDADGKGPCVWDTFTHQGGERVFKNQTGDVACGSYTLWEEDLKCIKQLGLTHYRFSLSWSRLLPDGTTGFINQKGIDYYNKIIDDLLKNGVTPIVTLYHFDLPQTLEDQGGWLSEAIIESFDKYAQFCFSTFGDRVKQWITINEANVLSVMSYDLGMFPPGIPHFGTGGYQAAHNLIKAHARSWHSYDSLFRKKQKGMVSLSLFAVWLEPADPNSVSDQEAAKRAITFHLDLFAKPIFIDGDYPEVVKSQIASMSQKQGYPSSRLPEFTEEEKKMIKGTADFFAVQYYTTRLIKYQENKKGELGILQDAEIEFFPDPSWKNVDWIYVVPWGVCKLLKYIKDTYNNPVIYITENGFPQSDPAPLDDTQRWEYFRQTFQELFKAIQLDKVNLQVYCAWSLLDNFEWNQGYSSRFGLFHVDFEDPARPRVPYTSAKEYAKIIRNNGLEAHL
Kind of data set: In vitro kinetic assay with GBA3. Type of data set: biochemical. To be noted: GBA enzymes at 50 nM. The procedure:
as §1

Take `CN(C)c1ccc(/N=N/c2ccc(C(=O)NCc3cn(CCOCCO[C@H](O[C@@H]4O[C@H](CO)[C@@H](O)[C@H](O)[C@H]4O)[C@@](C)(O)C(=O)NCCNc4cccc5c(S(=O)(=O)O)cccc45)nn3)cc2)cc1` [Compound 6, 5-((2-((2R,3R)-3-(2-(2-(4-((4-((E)-(4-(dimethylamino)phenyl)diazenyl)benzamido)methyl)-1H-1,2,3-triazol-1-yl)ethoxy)ethoxy)-2-hydroxy-2-methyl-3-(((2S,3R,4S,5S,6R)-3,4,5-trihydroxy-6-(hydroxymethyl)tetrahydro-2H-pyran-2-yl)oxy)propanamido)ethyl)amino)naphthalene-1-sulfonic Acid]: the “pH stability (increase of fluorescence)” value in data set [1] was “no significant increase of fluorescence”. The “turnover by GBA2” value on GBA2 is reported as “not turned over”. In addition, the “turnover by GBA1” value at GBA1 was “not turned over”. Moreover, the “turnover by GBA3” value at GBA3 was “not turned over”.
